According to the supplement of paper PMC11616607:

Key:
Assay in all cases: drug sensitivity score (DSS) from 5-point dose-response viability curve (DSS (area-under-curve based score)); higher = more sensitive (stronger growth inhibition or killing); extreme values may be limits of the assay
Settings in all cases: exposure time: 72 h; concentration range: 5 concentrations over 10,000-fold range
[1] = system: HOSE1C
How it was run: (§1)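 Ovarian cancer and normal ovarian cell lines were tested in 384-well plates. Drugs were acoustically dispensed (Echo 550) in DMSO or water at five concentrations spanning a 10,000-fold range, then 1,500 cells per well were added and incubated 3 days at 37°C, 5% CO2. Viability was read by CellTiter-Glo luminescence on a PHERAstar FS. Drug sensitivity score was derived per cell line and drug with Breeze software; higher means more sensitive, zero means no response.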

[2] = system: Ovsaho
How it was run: as §1

[3] = system: COV318
How it was run: as §1

[4] = system: OV90
How it was run: as §1

[5] = system: Kuramochi
How it was run: as §1

[6] = system: COV362
How it was run: as §1

[7] = system: OVCAR4
How it was run: as §1

[8] = system: HOSE2C
How it was run: as §1

[9] = system: OVCAR5
How it was run: as §1

[10] = system: CAOV3
How it was run: as §1

[11] = system: JHOS2
How it was run: as §1

[12] = system: OVCAR8
How it was run: as §1

SMILES | drug sensitivity score [1] | drug sensitivity score [2] | drug sensitivity score [3] | drug sensitivity score [4] | drug sensitivity score [5] | drug sensitivity score [6] | drug sensitivity score [7] | drug sensitivity score [8] | drug sensitivity score [9] | drug sensitivity score [10] | drug sensitivity score [11] | drug sensitivity score [12]
CC(C)(C)C[C@@H]1N[C@@H](C(=O)N[C@H]2CC[C@H](O)CC2)[C@H](c2cccc(Cl)c2F)[C@]12C(=O)Nc1cc(Cl)ccc12 | 14.7 | 1.4 | 0.3 | 2.1 | 1.5 | 1.2 | 0.1 | 16.9 | 0.4 | 0 | 0 | 0.4
CCOc1ccn(-c2ccc(F)cc2)c(=O)c1C(=O)Nc1ccc(Oc2ccnc(N)c2Cl)c(F)c1 | 0 | 0 | 0 | 0 | 0 | 0 | 0 | 0 | 0 | 0 | 0 | 0
CC[C@@H]1[C@H](F)C(=O)N[C@@H]1COc1nccc2cc(C(N)=O)c(OC)cc12 | 0 | 2.3 | 0 | 0.6 | 1.8 | 0 | 0.4 | 0 | 0.6 | 0.9 | 1.3 | 0.7
CCc1cncnc1N1CCN(Cc2nc3ccc(C(F)(F)F)cc3[nH]2)CC1 | 0 | 1.2 | 1.1 | 2.9 | 1.1 | 0 | 2.3 | 0 | 2.8 | 0.9 | 0.8 | 3.1
CCn1c(C(=O)N(C2CC2)C2CC2)cc2c3c(ncn3C)c(Nc3cc(C)n(C)n3)nc21 | 0 | 0 | 0.4 | 0.5 | 2.6 | 0.2 | 0.3 | 0 | 0 | 0 | 0 | 0
CN(C)CC#Cc1ccc(OCCCc2sc(N3CCc4cccc(C(=O)Nc5nc6ccccc6s5)c4C3)nc2C(=O)O)c(F)c1 | 22.7 | 10.4 | 1.3 | 19.2 | 1.6 | 1.6 | 3.5 | 6.2 | 4.1 | 7.5 | 1.2 | 0
CNC(=O)c1ccc(C)c(-n2c(C)cc(OCc3ccc(F)cc3F)c(Br)c2=O)c1 | 0 | 0 | 0 | 0 | 0.7 | 0 | 0 | 0 | 0.6 | 0 | 0 | 0
CNS(=O)(=O)Nc1nccc(Cc2c(C)c3ccc(Oc4ncccn4)cc3oc2=O)c1F | 0 | 0.3 | 0 | 6.3 | 0 | 0 | 1.7 | 0 | 0 | 3.3 | 0 | 0
C[C@@]1(C(=O)Nc2ccc(F)nc2)CCCN1c1nc(Nc2cc(C3CC3)n[nH]2)c2cccn2n1 | 8.9 | 7.5 | 3.1 | 7.4 | 4.8 | 6.5 | 7.2 | 18.7 | 14.4 | 20.2 | 3.3 | 5.2
C[C@H]1C[C@@H](n2c(Nc3ccc(OC(F)(F)F)cc3)nc3cc(CCC(=O)O)ccc32)CC(C)(C)C1 | 0 | 0 | 0 | 0 | 0 | 0 | 0 | 0 | 0 | 0 | 0 | 0.1
Cc1c(-c2c(-c3ccc(F)o3)sc3ncnc(O[C@H](Cc4ccccc4OCc4ccnn4CC(F)(F)F)C(=O)O)c23)ccc(OCCN2CCN(C)CC2)c1Cl | 0 | 0 | 0.2 | 0.1 | 0 | 0.4 | 0.6 | 0 | 0.1 | 0 | 0 | 0
Cc1c(-c2ccc(N3CCc4cccc(C(=O)Nc5nc6ccccc6s5)c4C3)nc2C(=O)O)cnn1CC12CC3CC(CC(C3)C1)C2 | 20.6 | 2.5 | 0 | 7.6 | 0 | 0 | 2.1 | 5.8 | 1 | 5.1 | 0 | 0.8
Cc1ccc(C(=O)N(CCCN)[C@@H](c2oc3cc(Cl)ccc3c(=O)c2Cc2ccccc2)C(C)C)cc1 | 15.8 | 4.1 | 1 | 6.4 | 2.9 | 0.4 | 3.4 | 9.2 | 4.5 | 5.8 | 4.8 | 2.9
Cc1nc(Nc2n[nH]c3c2CN(C(=O)N[C@H](CN(C)C)c2ccccc2)C3(C)C)c2sccc2n1 | 20.6 | 9 | 7.2 | 17 | 12.2 | 7.3 | 10.2 | 7.5 | 14.9 | 17.5 | 10.6 | 16.5
Cc1nn(C)c(COc2ccc(N3CCN(S(=O)(=O)N(C)C)CC3)cc2)c1-c1cccc2c(CCCOc3cccc4ccccc34)c(C(=O)O)n(CCN3CCOCC3)c12 | 13.7 | 8.6 | 5.4 | 5.7 | 7.8 | 2.8 | 5.1 | 13.7 | 5.2 | 4.9 | 6.3 | 7.4
N#Cc1ccc(COC[C@H]2O[C@@H](n3c(NCc4ccc(Cl)c(Cl)c4)nc4c(N)ncnc43)[C@H](O)[C@@H]2O)cc1 | 2.7 | 4.5 | 0.1 | 3.8 | 1.4 | 0.5 | 0.3 | 5.6 | 4.4 | 3.8 | 1 | 5.5

SMILES | drug sensitivity score [1] | drug sensitivity score [2] | drug sensitivity score [3] | drug sensitivity score [4] | drug sensitivity score [5] | drug sensitivity score [6] | drug sensitivity score [7] | drug sensitivity score [8] | drug sensitivity score [9] | drug sensitivity score [10] | drug sensitivity score [11] | drug sensitivity score [12]
NC[C@@](O)(c1ccc(Cl)cc1)c1ccc(-c2cn[nH]c2)cc1 | 8.6 | 0 | 3.3 | 0 | 0.1 | 0 | 1.1 | 6.1 | 0.7 | 0.5 | 2.8 | 1.1
Nc1nccc(-c2c(-c3ccc(F)cc3)ncn2C2CCCCC2)n1 | 1.6 | 0 | 0 | 0 | 0.1 | 0 | 0 | 0.9 | 1.9 | 1.7 | 0 | 0.7
Nc1ncnc2c1c(COc1cccc(Cl)c1)nn2C1CCOCC1 | 0 | 0 | 0 | 0 | 0.3 | 0 | 0 | 0 | 0.6 | 0 | 0 | 0
O=C(Nc1ccc2[nH]nc(-c3ccncc3)c2c1)[C@@H]1CCN(CC(=O)N2CCN(c3ccc(-c4ncccn4)cc3)CC2)C1 | 0.2 | 14.1 | 0 | 23.5 | 13.2 | 4.9 | 1.7 | 1.1 | 13.4 | 12.2 | 8.4 | 6.7
O=c1[nH]c(C2CCCN2)nc2c1oc1ccc(Cl)cc12 (configuration not stated) | 2.6 | 0 | 0 | 0.2 | 0 | 0 | 0 | 0.9 | 4 | 3.5 | 0 | 0
COc1ccc(C[C@H](NC(=O)[C@H](C)NC(=O)CN2CCOCC2)C(=O)N[C@@H](Cc2ccccc2)C(=O)C2(C)CO2)cc1 (stereo in doubt) [ONX-0914] | 27.9 | 19.6 | 12.3 | 19.8 | 11.6 | 17.9 | 17.1 | 21.3 | 18.2 | 17.9 | 16.1 | 17.7
CC/C(=C(\c1ccc(O)cc1)c1ccc(OCCN(C)C)cc1)c1ccccc1 [4-hydroxytamoxifen] | 2.7 | 3.9 | 5.5 | 6 | 4.2 | 2 | 2.1 | 3 | 5.9 | 0.2 | 2.8 | 2.6
Nc1ncnc2c1nc(N)n2[C@@H]1O[C@H](CO)[C@@H](O)[C@H]1O [8-amino-adenosine] | 4.1 | 26 | 15.1 | 20.1 | 24.5 | 20.4 | 19 | 4.9 | 23.5 | 22.6 | 28.2 | 20.5
Nc1ncnc2c1nc(Cl)n2[C@@H]1O[C@H](CO)[C@@H](O)[C@H]1O [8-chloro-adenosine] | 0.5 | 18.5 | 3.7 | 3.7 | 5.1 | 7.6 | 8 | 3.5 | 11.9 | 11.2 | 9.4 | 13.2
COc1cc2c(cc1OCCCN1CCCC1)N=C(N)C21CCC1 [A-366] | 0.8 | 0.3 | 0 | 5.7 | 1.2 | 1.2 | 0.1 | 0 | 0.4 | 0.3 | 0 | 1
COc1ccc(S(=O)(=O)Nc2cccnc2Nc2ccc(O)cc2)cc1 [ABT-751] | 15.8 | 7 | 7.2 | 9.4 | 7.4 | 4.3 | 5 | 10.7 | 10.3 | 14.9 | 7.1 | 11.5
C[C@H](Nc1ncnc2[nH]cnc12)c1cc2ccc(F)cc2nc1-c1ccccn1 [AMG319] | 0 | 1.2 | 0.1 | 0 | 1.1 | 0 | 0.7 | 0 | 0 | 0 | 0 | 0
COCCOc1cnc2ccn([C@H](C)c3nnc4c(F)cc(-c5cnn(C)c5)cn34)c(=O)c2c1 [AMG-337] | 0 | 0 | 0 | 0 | 0 | 0 | 0 | 0 | 0 | 0 | 0 | 0
CC1CCC(n2c3cnccc3c3cnc(Nc4ccc5c(n4)CCN(C(=O)CO)C5)nc32)CC1 (configuration not stated) [AMG-925] | 0 | 0.1 | 0 | 0 | 0.1 | 0 | 0 | 0 | 2.5 | 0 | 0.5 | 0
CC(C)[C@H](C(=O)Nc1ccc(C(=O)NO)cc1)c1ccccc1 [AR-42] | 21.1 | 9 | 7.5 | 12.8 | 9.5 | 2.9 | 7.2 | 16.9 | 16.5 | 9.9 | 7.8 | 16.8
